Experimental data from patent publication US20260294769A1, “ASCORBIC ACID DERIVATIVES AND COSMETIC THEREOF” (SEIWA KASEI COMPANY, LIMITED, priority 2023, published 2026).

Columns and labels:
[1] = Stability Test-2: residual rate in cream of pH 7 or 9 stored at 50° C.; format: physicochemical
Outline: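 Each test sample was formulated into a cream adjusted to pH 7 or 9: components (a) and (b) were heated and mixed separately, cooled, and then component (c) was added. The cream was held at 50° C., and the percentage of the sample compound still present (residual rate) was determined after storage.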

[2] = system: Normal human dermal fibroblasts (NHDF); assay: Hyaluronic acid production promoting effect (ELISA of hyaluronic acid in supernatant); format: cell-based; settings: 10 mM or less, 48 hours, control group set to 100%, N=3
Outline: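 NHDF seeded at 2.5×10^4 cells/well in D-MEM with 5% FBS, pre-incubated 24 h, then exposed to samples in serum-free D-MEM for 48 h. Supernatant hyaluronic acid measured by ELISA in triplicate, expressed as % of control (100%) at ≤10 mM sample.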

[3] = system: Normal human dermal fibroblasts; assay: Collagen production promoting effect (ELISA of free collagen in supernatant); format: cell-based; settings: 10 mM or less, 48 hours, control group set to 100%, N=3
Protocol: Normal human dermal fibroblasts were prepared in D-MEM containing 5% (v/v) fetal bovine serum to a cell density of 2.5×10^4 cells/well, and then pre-incubated for 24 hours on a 96-well plate. After removing the medium, samples prepared to a predetermined concentration in D-MEM containing 5% (v/v) fetal bovine serum were added to each well and cultured for 48 hours. After the culture was completed, the amount of free collagen in the supernatant was quantified by ELISA. Measurements were performed in triplicate (N=3).
The amount of collagen produced when the sample was measured at a concentration of 10 mM or less was compared with that of the control group, and the results (% values when the control group was set to 100%) are shown in Table 17 based on the following criteria.

[4] = Stability Test-2: odor of cream stored at 50° C.; format: physicochemical; settings: 10 panelists
Outline: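 Test creams were made by heating and mixing components (a) and (b), cooling, then adding component (c) to give a pH of 7 or 9. After storage at 50° C., 10 panelists scored odor: 3 almost odorless, 2 slight strange odor, 1 strong odor. Totals were graded ◯ (25 or more), Δ (16-24) or x (15 or less).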

[5] = system: Normal human epidermal keratinocytes; assay: Antioxidant effect: ROS production inhibition rate (DCFHDA, H2O2); format: cell-based; settings: 10 mM or less, 24 hours incubation, 0.2 mM H2O2, N=4
Protocol: Normal human epidermal keratinocytes were seeded onto a 96-well plate using KG2 medium at a cell density of 2.0×10^4 cells/well. After 24 hours of pre-incubation, samples adjusted to a predetermined concentration in KG2 medium were added to each well. After 24 hours of incubation, the medium was removed, followed by washing with HBSS(−) and the incorporation of the ROS-reactive fluorescent probe DCFHDA for 30 minutes. The cells were again washed with HBSS(−), treated with 0.2 mM H2O2, and incubated for 2 hours. The fluorescence intensity was measured, and the amount of ROS produced per unit protein was calculated by dividing the fluorescence intensity by the amount of protein quantified by the BCA method, resulting in an analytical value of 1. Furthermore, the amount of ROS production calculated without adding the sample adjusted to a predetermined concentration using the above test method was set to analytical value 2; and the amount of ROS production calculated without adding the sample or 0.2 mM H2O2 was set to analytical value 3.
ROS production inhibition rate (%) was calculated using the following formula. The higher the ROS production inhibition rate, the greater the antioxidant effect can be evaluated to be.
The ROS production inhibition rate when the sample was measured at a concentration of 10 mM or less was evaluated as follows. Note that the measurement was performed in N=4.

[6] = Stability Test-2: coloration of cream stored at 50° C.; format: physicochemical; settings: 10 panelists
Outline: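 Creams were made by heating and mixing parts (a) and (b), cooling, then adding part (c), adjusting pH to 7 or 9. After storage at 50° C., ten panelists scored coloration against the freshly prepared cream: 3 for almost no change, 2 for color change, 1 for strong coloration.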

[7] = cream pH 7, 50° C., after 2 weeks, 20160 min
[8] = cream pH 7, 50° C., after 4 weeks, 40320 min
[9] = cream pH 9, 50° C., after 2 weeks, 20160 min
[10] = cream pH 9, 50° C., after 4 weeks, 40320 min

## CCCC(=O)OCC(OC(=O)CCC)C1OC(=O)C2=C1OCCCCO2 (stereo not shown) [Synthesis Example 10, 5,6-O-dibutanoyl-2,3-O-(1,4-butanediyl) ascorbic acid]
[1]; [7]
  Residual Rate: ⊚ (95% or more)
[1]; [8]
  Residual Rate: ⊚ (95% or more)
[1]; [9]
  Residual Rate: ⊚ (95% or more)
[1]; [10]
  Residual Rate: ⊚ (95% or more)
[2]
  Hyaluronic acid production-promoting effect: ++ (120%<)
[3]
  Collagen production-promoting effect: ++ (140%<)
[4]; after 2 weeks
  Odor: ◯ (Total score of 10 panelists is 25 or more)
[4]; after 4 weeks
  Odor: Δ (Total score of 10 panelists is 16-24)
[5]
  Antioxidant effect (ROS production inhibition rate): + (<20%)
[6]; after 2 weeks
  Coloration: ◯ (Total score of 10 panelists is 25 or more)
[6]; after 4 weeks
  Coloration: ◯ (Total score of 10 panelists is 25 or more)

## CCCCCCCCCCCC(=O)OCC(O)C1OC(=O)C2=C1OCCCCO2 (stereo not shown) [Synthesis Example 13, 6-O-lauroyl-2,3-O-(1,4-butanediyl) ascorbic acid]
[1]; [7]
  Residual Rate: ⊚ (95% or more)
[1]; [8]
  Residual Rate: ⊚ (95% or more)
[1]; [9]
  Residual Rate: ⊚ (95% or more)
[1]; [10]
  Residual Rate: ⊚ (95% or more)
[2]
  Hyaluronic acid production-promoting effect: ++ (120%<)
[4]; after 2 weeks
  Odor: ◯ (Total score of 10 panelists is 25 or more)
[4]; after 4 weeks
  Odor: Δ (Total score of 10 panelists is 16-24)
[5]
  Antioxidant effect (ROS production inhibition rate): + (<20%)
[6]; after 2 weeks
  Coloration: ◯ (Total score of 10 panelists is 25 or more)
[6]; after 4 weeks
  Coloration: ◯ (Total score of 10 panelists is 25 or more)

## CCCCCCCCCCCC(=O)OCC(OC(=O)CCCCCCCCCCC)C1OC(=O)C2=C1OCCCCO2 (stereo not shown) [Synthesis Example 14, 5,6-O-dilauroyl-2,3-O-(1,4-butanediyl) ascorbic acid]
[1]; [7]
  Residual Rate: ⊚ (95% or more)
[1]; [8]
  Residual Rate: ⊚ (95% or more)
[1]; [9]
  Residual Rate: ⊚ (95% or more)
[1]; [10]
  Residual Rate: ∘ (85% or more, less than 95%)
[2]
  Hyaluronic acid production-promoting effect: ++ (120%<)
[4]; after 2 weeks
  Odor: ◯ (Total score of 10 panelists is 25 or more)
[4]; after 4 weeks
  Odor: Δ (Total score of 10 panelists is 16-24)
[5]
  Antioxidant effect (ROS production inhibition rate): + (<20%)
[6]; after 2 weeks
  Coloration: ◯ (Total score of 10 panelists is 25 or more)
[6]; after 4 weeks
  Coloration: ◯ (Total score of 10 panelists is 25 or more)

## CC(C)CCCCCCCCCCCCCCC(=O)OC[C@H](O)[C@H]1OC(=O)C2=C1OCCCCO2 [Synthesis Example 17, 6-O-isostearoyl-2,3-O-(1,4-butanediyl) ascorbic acid]
[1]; [7]
  Residual Rate: ⊚ (95% or more)
[1]; [8]
  Residual Rate: ⊚ (95% or more)
[1]; [9]
  Residual Rate: ⊚ (95% or more)
[1]; [10]
  Residual Rate: ⊚ (95% or more)
[2]
  Hyaluronic acid production-promoting effect: ++ (120%<)
[3]
  Collagen production-promoting effect: ++ (140%<)
[4]; after 2 weeks
  Odor: ◯ (Total score of 10 panelists is 25 or more)
[4]; after 4 weeks
  Odor: Δ (Total score of 10 panelists is 16-24)
[5]
  Antioxidant effect (ROS production inhibition rate): + (<20%)
[6]; after 2 weeks
  Coloration: ◯ (Total score of 10 panelists is 25 or more)
[6]; after 4 weeks
  Coloration: ◯ (Total score of 10 panelists is 25 or more)

## CCCCCCCC(=O)OCC(OC(=O)CCCCCCC)C1OC(=O)C2=C1OCCCO2 (stereo not shown) [Synthesis Example 23, 5,6-O-dioctanoyl-2,3-O-(1,3-propanediyl) ascorbic acid]
[1]; [7]
  Residual Rate: ⊚ (95% or more)
[1]; [8]
  Residual Rate: ⊚ (95% or more)
[1]; [9]
  Residual Rate: ⊚ (95% or more)
[1]; [10]
  Residual Rate: ⊚ (95% or more)
[3]
  Collagen production-promoting effect: ++ (140%<)
[4]; after 2 weeks
  Odor: ◯ (Total score of 10 panelists is 25 or more)
[4]; after 4 weeks
  Odor: Δ (Total score of 10 panelists is 16-24)
[5]
  Antioxidant effect (ROS production inhibition rate): + (<20%)
[6]; after 2 weeks
  Coloration: ◯ (Total score of 10 panelists is 25 or more)
[6]; after 4 weeks
  Coloration: ◯ (Total score of 10 panelists is 25 or more)
